Test results: patent US20220249447A1, “CF3-, OCF3-, SCF3-, and SF5-Containing Antibacterial Agents” (Purdue Research Foundation, priority 2019, published 2022)
Converted amounts (≈) assume the structure as drawn. Where two headings read alike, the source gives them in different places.

Tests used:
[1] = system: C. difficile NR-13435 (isolate 9); assay: MIC against C. difficile NR-13435 (isolate 9); format: cell-based
Method: (§1) Bacteria were cultured in cation-adjusted Mueller Hinton Broth (for strains in Tables 1-3) or Brain Heart Infusion broth (for Enterococcus faecium) or Tryptic Soy Broth (all other bacteria) in a 96-well plate at 37° C. for at least 20 hours. The MIC was classified as the lowest concentration where no visual growth of bacteria was observed. The minimum bactericidal concentration (MBC) was tested by spotting 4 μL from wells with no growth onto Tryptic Soy Agar (TSA) plates. Plates were incubated at 37° C. for at least 18 hours before recording the MBC.

C. difficile ATCC 43255 = assay: MIC against C. difficile ATCC 43255; format: cell-based
Method: as §1

[2] = system: Neisseria gonorrhea strain 181; assay: MIC against Neisseria gonorrhea strain 181; format: cell-based
Method: as §1

[3] = system: C. difficile NR-32895 (P19); assay: MIC against C. difficile NR-32895 (P19); format: cell-based
Method: as §1

[4] = system: C. difficile NR-13432 (isolate 6); assay: MIC against C. difficile NR-13432 (isolate 6); format: cell-based
Method: as §1

S. aureus = assay: MIC, broth microdilution, S. aureus; format: cell-based; settings: Staphylococcus aureus
Method: as §1

[5] = system: C. difficile NR-32883 (P2); assay: MIC against C. difficile NR-32883 (P2); format: cell-based
Method: as §1

[6] = system: C. difficile NR-32891 (P13); assay: MIC against C. difficile NR-32891 (P13); format: cell-based
Method: as §1

MRSA ATCC 33592 = assay: MIC, broth microdilution, MRSA ATCC 33592; format: cell-based, methicillin-resistant S. aureus; settings: Staphylococcus aureus
Method: All MRSA isolates were acquired from BEI Resources. The remaining bacteria were purchased from the American Type Culture Collection (ATCC).
as §1

[7] = system: C. difficile NR-32904 (P30); assay: MIC against C. difficile NR-32904 (P30); format: cell-based
Method: as §1

[8] = system: C. difficile ATCC BAA 1801; assay: MIC against C. difficile ATCC BAA 1801; format: cell-based
Method: as §1

MRSA USA300 cells = assay: Time-kill assay; format: cell-based
Method: The time-kill analysis was performed as previously described^29. […] Aliquots (100 μL) were collected from each treatment after 0, 2, 4, 8, 12, and 24 hours of incubation at 37° C. and subsequently serially diluted in phosphate-buffered saline (PBS). Bacteria were then transferred to TSA plates and incubated at 37° C. for 18-20 hours before viable CFU/mL was determined (see FIG. 2).

E. faecalis ATCC 29212 = assay: MIC, broth microdilution, E. faecalis ATCC 29212; format: cell-based; settings: Enterococcus faecalis, ATCC29212
Method: as §1

VRE ATCC 51575 = assay: MIC, broth microdilution, VRE ATCC 51575; format: cell-based; settings: Enterococcus
Method: as §1

[9] = system: L. monocytogenes ATCC 19115; assay: MIC, broth microdilution, L. monocytogenes ATCC 19115; format: cell-based; settings: Listeria monocytogenes, ATCC19115
Method: as §1

[10] = Clostridioides difficile; read-out: MIC C. difficile NR-13435 (isolate 9)
[11] = Clostridioides difficile, ATCC43255; read-out: MIC C. difficile ATCC 43255
[12] = Clostridioides difficile; read-out: MIC C. difficile NR-32895 (P19)
[13] = Clostridioides difficile; read-out: MIC C. difficile NR-13432 (isolate 6)
[14] = Clostridioides difficile; read-out: MIC C. difficile NR-32883 (P2)
[15] = Clostridioides difficile; read-out: MIC C. difficile NR-32891 (P13)
[16] = Clostridioides difficile; read-out: MIC C. difficile NR-32904 (P30)
[17] = Clostridioides difficile, BAA1801; read-out: MIC C. difficile ATCC BAA 1801

Compound | MIC [1, 10] [µg/mL] | MIC (C. difficile ATCC 43255; [11]) [µg/mL] | MIC [2] [µg/mL] | MIC [3, 12] [µg/mL] | MIC [4, 13] [µg/mL] | MIC (S. aureus) [µg/mL] | MIC [5, 14] [µg/mL] | MIC [6, 15] [µg/mL] | MIC (MRSA ATCC 33592) [µg/mL] | MIC [7, 16] [µg/mL] | MIC [8, 17] [µg/mL] | also measured
O=C(Nc1nnc(-c2cccs2)o1)c1ccc(S(=O)(=O)C(F)(F)F)cc1 [HSGN-103] | – | – | – | – | – | – | – | – | – | – | – | MIC C. difficile NR-13435 (isolate 9) [1]: 0.5 µg/mL (≈ 1.24 µM); MIC C. difficile ATCC 43255 (C. difficile ATCC 43255): 0.5 µg/mL (≈ 1.24 µM); MIC C. difficile NR-32895 (P19) [3]: 0.5 µg/mL (≈ 1.24 µM); MIC C. difficile NR-13432 (isolate 6) [4]: 0.5 µg/mL (≈ 1.24 µM); MIC C. difficile NR-32883 (P2) [5]: 0.5 µg/mL (≈ 1.24 µM); MIC C. difficile NR-32891 (P13) [6]: 0.5 µg/mL (≈ 1.24 µM); MIC C. difficile NR-32904 (P30) [7]: 0.5 µg/mL (≈ 1.24 µM); MIC C. difficile ATCC BAA 1801 [8]: 0.5 µg/mL (≈ 1.24 µM); Bactericidal/Bacteriostatic (MRSA USA300 cells): Bacteriostatic; Δlog2 CFU/mL (MRSA USA300 cells; MRSA USA300, 3× MIC or 6× MIC, up to 24 hours): 1.04
O=C(Nc1nnc(-c2cccc(Cl)c2)o1)c1ccc(SC(F)(F)F)cc1 [HSGN-204, N-(5-(3-chlorophenyl)-1,3,4-oxadiazol-2-yl)-4-((trifluoromethyl)thio)benzamide] | 0.007 (≈ 0.0175 µM) | 0.003 (≈ 0.0075 µM) | 0.25 (≈ 0.625 µM) | 0.007 (≈ 0.0175 µM) | 0.03 (≈ 0.075 µM) | 0.125 (≈ 0.313 µM) | 0.003 (≈ 0.0075 µM) | 0.03 (≈ 0.075 µM) | 0.125 (≈ 0.313 µM) | 0.015 (≈ 0.0375 µM) | 0.03 (≈ 0.075 µM) | MIC (E. faecalis ATCC 29212): 0.25 µg/mL (≈ 0.625 µM); MIC (VRE ATCC 51575): 0.25 µg/mL (≈ 0.625 µM); MIC [9]: 0.125 µg/mL (≈ 0.313 µM)
CN[C@H](CC(C)C)C(=O)N[C@H]1C(=O)N[C@@H](CC(N)=O)C(=O)N[C@H]2C(=O)N[C@H]3C(=O)N[C@H](C(=O)N[C@H](C(=O)O)c4cc(O)cc(O)c4-c4cc3ccc4O)[C@H](O)c3ccc(c(Cl)c3)Oc3cc2cc(c3O[C@@H]2O[C@H](CO)[C@@H](O)[C@H](O)[C@H]2O[C@H]2C[C@](C)(N)[C@H](O)[C@H](C)O2)Oc2ccc(cc2Cl)[C@H]1O [Vancomycin, reference compound] | – | – | – | – | – | – | – | – | – | – | – | MIC ([1]; Clostridioides difficile, read-out: MIC C. difficile NR-13435 (isolate 9)): 1 µg/mL (≈ 0.69 µM); MIC (C. difficile ATCC 43255; Clostridioides difficile, ATCC43255, read-out: MIC C. difficile ATCC 43255): 1 µg/mL (≈ 0.69 µM); MIC ([3]; Clostridioides difficile, read-out: MIC C. difficile NR-32895 (P19)): 1 µg/mL (≈ 0.69 µM); MIC ([4]; Clostridioides difficile, read-out: MIC C. difficile NR-13432 (isolate 6)): 0.25 µg/mL (≈ 0.173 µM); MIC ([5]; Clostridioides difficile, read-out: MIC C. difficile NR-32883 (P2)): 0.5 µg/mL (≈ 0.345 µM); MIC ([6]; Clostridioides difficile, read-out: MIC C. difficile NR-32891 (P13)): 0.5 µg/mL (≈ 0.345 µM); MIC ([7]; Clostridioides difficile, read-out: MIC C. difficile NR-32904 (P30)): 1 µg/mL (≈ 0.69 µM); MIC ([8]; Clostridioides difficile, BAA1801, read-out: MIC C. difficile ATCC BAA 1801): 1 µg/mL (≈ 0.69 µM); Bactericidal/Bacteriostatic (MRSA USA300 cells): Bactericidal
O=C(Nc1nnc(-c2ccc(Cl)s2)o1)c1ccc(SC(F)(F)F)cc1 [HSGN-210, N-(5-(5-chlorothiophen-2-yl)-1,3,4-oxadiazol-2-yl)-4-((trifluoromethyl)thio)benzamide] | 0.003 (≈ 0.00739 µM) | 0.007 (≈ 0.0172 µM) | 0.5 (≈ 1.23 µM) | 0.03 (≈ 0.0739 µM) | 0.015 (≈ 0.037 µM) | 0.25 (≈ 0.616 µM) | 0.003 (≈ 0.00739 µM) | 0.06 (≈ 0.148 µM) | 0.25 (≈ 0.616 µM) | 0.06 (≈ 0.148 µM) | 0.06 (≈ 0.148 µM) | MIC (E. faecalis ATCC 29212): 0.5 µg/mL (≈ 1.23 µM); MIC (VRE ATCC 51575): 0.5 µg/mL (≈ 1.23 µM); MIC [9]: 0.25 µg/mL (≈ 0.616 µM)
CN(C)[C@@H]1C(O)=C(C(N)=O)C(=O)[C@@]2(O)C(O)=C3C(=O)c4c(O)cccc4[C@@](C)(O)[C@H]3C[C@@H]12 [Tetracycline, reference compound] | – | – | 2 (≈ 4.5 µM) | – | – | – | – | – | – | – | – | –

The next lines start with results.

MIC [1, 10] [µg/mL] | MIC (C. difficile ATCC 43255; [11]) [µg/mL] | MIC [2] [µg/mL] | MIC [3, 12] [µg/mL] | MIC [4, 13] [µg/mL] | MIC (S. aureus) [µg/mL] | MIC [5, 14] [µg/mL] | MIC [6, 15] [µg/mL] | MIC (MRSA ATCC 33592) [µg/mL] | MIC [7, 16] [µg/mL] | MIC [8, 17] [µg/mL] | Compound | also measured
0.06 (≈ 0.135 µM) | 0.06 (≈ 0.135 µM) | 0.25 (≈ 0.563 µM) | 0.125 (≈ 0.281 µM) | 0.06 (≈ 0.135 µM) | 0.5 (≈ 1.13 µM) | 0.06 (≈ 0.135 µM) | 0.125 (≈ 0.281 µM) | 0.5 (≈ 1.13 µM) | 0.125 (≈ 0.281 µM) | 0.06 (≈ 0.135 µM) | O=C(Nc1nnc(-c2cccc(Br)c2)o1)c1ccc(SC(F)(F)F)cc1 [HSGN-217, N-(5-(3-bromophenyl)-1,3,4-oxadiazol-2-yl)-4-((trifluoromethyl)thio)benzamide] | –
– | – | 2 (≈ 4.31 µM) | – | – | 0.0625 (≈ 0.135 µM) | – | – | 0.0625 (≈ 0.135 µM) | – | – | COc1c(Cl)cc(-c2nnc(NC(=O)c3ccc(SC(F)(F)F)cc3)o2)cc1Cl [HSGN-265, N-(5-(3,5-dichloro-4-methoxyphenyl)-1,3,4-oxadiazol-2-yl)-4-((trifluoromethyl)thio)benzamide] | –
– | – | 0.125 (≈ 0.312 µM) | – | – | 0.5 (≈ 1.25 µM) | – | – | 0.5 (≈ 1.25 µM) | – | 0.015 (≈ 0.0374 µM) | O=C(Nc1nnc(-c2cccc(Cl)c2)o1)c1ccc(SC(F)(F)F)nc1 [HSGN-247, N-(5-(3-chlorophenyl)-1,3,4-oxadiazol-2-yl)-6-((trifluoromethyl)thio)nicotinamide] | –
